# From ChEMBL document CHEMBL5543116, “Discovery of DNL343: A Potent, Selective, and Brain-Penetrant eIF2B Activator Designed for the Treatment of Neurodegenerative Diseases” (J Med Chem, 2024)
# Activity calls are given as the source filed them. The rule behind the calls is not given here.
# Key:
# [1] = Metabolic stability in human liver microsome assessed as hepatic clearance; type: ADME; conditions: liver microsomes
# [2] = Lipophilicity, log D of the compound at pH 7.4; type: physicochemical; conditions: buffer
# [3] = Kinetic solubility of compound; type: physicochemical; conditions: read-out: Kinetic_solubility
# [4] = Volume of distribution at steady state in dog at 0.5 mg/kg, iv; type: ADME, organism-based, Canis lupus familiaris; conditions: in vivo, read-out: Vdss
# [5] = target: T1, Aryl hydrocarbon receptor (Homo sapiens, UniProt P35869); experiment: Activation of AHR (unknown origin)
# T1 sequence (P35869 whole entry): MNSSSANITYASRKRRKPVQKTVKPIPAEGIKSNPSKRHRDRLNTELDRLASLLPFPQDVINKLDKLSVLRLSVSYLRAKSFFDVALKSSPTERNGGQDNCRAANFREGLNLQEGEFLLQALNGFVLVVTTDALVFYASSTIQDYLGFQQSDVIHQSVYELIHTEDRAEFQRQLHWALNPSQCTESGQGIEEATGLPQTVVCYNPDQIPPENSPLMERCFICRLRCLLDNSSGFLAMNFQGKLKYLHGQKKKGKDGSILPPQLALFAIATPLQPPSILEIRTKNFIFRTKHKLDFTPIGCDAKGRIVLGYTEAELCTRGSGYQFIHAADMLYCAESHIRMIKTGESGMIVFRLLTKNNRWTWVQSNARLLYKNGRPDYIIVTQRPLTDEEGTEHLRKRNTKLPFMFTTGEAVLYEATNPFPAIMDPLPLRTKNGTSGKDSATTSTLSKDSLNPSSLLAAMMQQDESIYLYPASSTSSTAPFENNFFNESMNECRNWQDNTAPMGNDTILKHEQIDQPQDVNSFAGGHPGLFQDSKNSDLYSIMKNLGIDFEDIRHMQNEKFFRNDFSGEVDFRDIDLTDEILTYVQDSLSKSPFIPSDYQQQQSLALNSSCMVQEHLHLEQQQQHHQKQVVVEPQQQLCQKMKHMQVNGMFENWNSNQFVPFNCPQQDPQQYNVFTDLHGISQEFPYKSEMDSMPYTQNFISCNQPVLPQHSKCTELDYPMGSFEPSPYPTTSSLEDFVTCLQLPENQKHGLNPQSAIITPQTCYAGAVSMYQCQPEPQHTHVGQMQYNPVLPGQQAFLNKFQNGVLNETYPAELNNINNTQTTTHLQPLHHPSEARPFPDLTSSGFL
# [6] = Ratio of unbound drug concentration in cynomolgus monkey brain to plasma at 0.5 mg/kg, po measured after 6 hrs; type: ADME, organism-based, Macaca fascicularis
# [7] = Half life in cynomolgus monkey at 0.5 mg/kg, iv; type: ADME, organism-based, Macaca fascicularis; conditions: in vivo
# Mus musculus [8] = experiment: Neuroprotective activity against Eif 2bS R191H […] mouse model assessed as reduction in Psat1 level in brain at 50 mg/kg, po administered for 2 days; type: functional, organism-based; conditions: time 2.0 day
# Mus musculus [9] = experiment: Neuroprotective activity against Eif 2bS R191H […] mouse model assessed as reduction in Atf4 level in brain at 50 mg/kg, po administered for 2 days; type: functional, organism-based; conditions: time 2.0 day
# [10] = Half life in rat at 1 mg/kg, iv by LC-MS/MS analysis; type: ADME, organism-based; conditions: in vivo
# [11] = Metabolic stability in rat liver microsome assessed as hepatic clearance; type: ADME; conditions: liver microsomes
# [12] = Volume of distribution at steady state in rat at 1 mg/kg, iv by LC-MS/MS analysis; type: ADME, organism-based; conditions: in vivo, read-out: Vdss
# Mus musculus [13] = experiment: Neuroprotective activity against Eif 2bS R191H […] mouse model assessed as reduction in Slc1a5 level in brain at 50 mg/kg, po administered for 2 days; type: functional, organism-based; conditions: time 2.0 day
# [14] = Ratio of unbound drug concentration in rat brain to plasma at 3 mg/kg, po; type: ADME, organism-based
# [15] = Volume of distribution at steady state in rat at 1 mg/kg, iv; type: ADME, organism-based; conditions: in vivo, read-out: Vdss
# [16] = Clearance in dog at 0.5 mg/kg, iv; type: ADME, organism-based, Canis lupus familiaris; conditions: in vivo
# Mus musculus [17] = experiment: Neuroprotective activity against Eif 2bS R191H […] mouse model assessed as reduction in ppp1r15a level in brain at 50 mg/kg, po administered for 2 days; type: functional, organism-based; conditions: time 2.0 day
# Mus musculus [18] = experiment: Neuroprotective activity against Eif 2bS R191H […] mouse model assessed as reduction in asns level in brain at 50 mg/kg, po administered for 2 days; type: functional, organism-based; conditions: time 2.0 day
# Mus musculus [19] = experiment: Neuroprotective activity against Eif 2bS R191H […] mouse model assessed as reduction in Sic7a5 level in brain at 50 mg/kg, po administered for 2 days; type: functional, organism-based; conditions: time 2.0 day
# Mus musculus [20] = experiment: Neuroprotective activity against Eif 2bS R191H […] mouse model assessed as reduction in Atf3 level in brain at 50 mg/kg, po administered for 2 days; type: functional, organism-based; conditions: time 2.0 day
# [21] = Metabolic stability in rat liver microsome assessed as clearance; type: ADME; conditions: liver microsomes
# [22] = Oral bioavailability in cynomolgus monkey at 1 mg/kg; type: ADME, organism-based, Macaca fascicularis; conditions: in vivo
# Mus musculus [23] = experiment: Neuroprotective activity against Eif 2bS R191H […] mouse model assessed as reduction in Eif4ebp1 level in brain at 50 mg/kg, po administered for 2 days; type: functional, organism-based; conditions: time 2.0 day
# [24] = Oral bioavailability in rat at 3 mg/kg; type: ADME, organism-based; conditions: in vivo
# [25] = Clearance in cynomolgus monkey at 0.5 mg/kg, iv; type: ADME, organism-based, Macaca fascicularis; conditions: in vivo
# [26] = target: Voltage-gated inwardly rectifying potassium channel KCNH2 (Homo sapiens, UniProt Q12809); experiment: Inhibition of hERG manual patch clamp assay; type: toxicity
# Chain of Voltage-gated inwardly rectifying potassium channel KCNH2 (Q12809 whole entry): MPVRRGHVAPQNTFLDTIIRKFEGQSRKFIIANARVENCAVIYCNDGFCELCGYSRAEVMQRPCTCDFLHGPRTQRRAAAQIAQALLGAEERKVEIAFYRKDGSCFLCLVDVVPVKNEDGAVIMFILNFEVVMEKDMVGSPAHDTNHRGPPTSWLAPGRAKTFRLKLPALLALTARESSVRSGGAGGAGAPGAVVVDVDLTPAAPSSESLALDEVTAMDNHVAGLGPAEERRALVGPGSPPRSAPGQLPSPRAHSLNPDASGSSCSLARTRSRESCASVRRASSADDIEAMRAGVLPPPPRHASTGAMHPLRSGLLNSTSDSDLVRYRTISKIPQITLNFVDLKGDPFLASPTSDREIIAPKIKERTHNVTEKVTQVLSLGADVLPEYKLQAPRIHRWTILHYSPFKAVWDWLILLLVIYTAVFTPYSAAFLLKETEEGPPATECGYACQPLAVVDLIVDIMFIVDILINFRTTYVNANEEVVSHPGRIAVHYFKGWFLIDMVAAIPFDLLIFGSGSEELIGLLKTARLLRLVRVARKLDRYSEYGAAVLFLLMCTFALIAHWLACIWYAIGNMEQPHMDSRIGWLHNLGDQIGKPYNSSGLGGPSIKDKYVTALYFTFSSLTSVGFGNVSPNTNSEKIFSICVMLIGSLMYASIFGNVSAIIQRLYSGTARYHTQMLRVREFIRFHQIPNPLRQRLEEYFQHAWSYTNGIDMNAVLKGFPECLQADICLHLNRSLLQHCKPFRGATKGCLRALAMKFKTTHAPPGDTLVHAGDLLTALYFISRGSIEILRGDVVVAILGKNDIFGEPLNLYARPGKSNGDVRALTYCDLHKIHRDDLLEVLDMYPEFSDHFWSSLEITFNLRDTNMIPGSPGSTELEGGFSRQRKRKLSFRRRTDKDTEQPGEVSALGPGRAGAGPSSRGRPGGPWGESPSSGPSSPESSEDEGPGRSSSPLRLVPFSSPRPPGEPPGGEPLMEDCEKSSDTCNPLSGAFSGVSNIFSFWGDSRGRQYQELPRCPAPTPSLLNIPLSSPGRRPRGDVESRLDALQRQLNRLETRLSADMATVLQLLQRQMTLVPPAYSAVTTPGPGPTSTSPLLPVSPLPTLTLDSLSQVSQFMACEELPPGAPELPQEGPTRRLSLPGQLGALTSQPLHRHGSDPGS
# Mus musculus [27] = experiment: Neuroprotective activity against Eif 2bS R191H […] mouse model assessed as reduction in Ddit3 level in brain at 50 mg/kg, po administered for 2 days; type: functional, organism-based; conditions: time 2.0 day
# H4 = experiment: Neuroprotective activity against NaAsO2-induced human H4 cells expressing GFP TDP43 (86 to 414 residues) assessed as decrease in TDP43 accumulation incubated for 2 hrs by DAPI staining based microscopic analysis; type: functional, cell-based; conditions: H4, 2 h
# [28] = Half life in dog at 0.5 mg/kg, iv; type: ADME, organism-based, Canis lupus familiaris; conditions: in vivo
# [29] = Oral bioavailability in dog at 1 mg/kg; type: ADME, organism-based, Canis lupus familiaris; conditions: in vivo
# Mus musculus [30] = experiment: Neuroprotective activity against Eif 2bS R191H […] mouse model assessed as reduction in Sensn2 level in brain at 50 mg/kg, po administered for 2 days; type: functional, organism-based; conditions: time 2.0 day
# Mus musculus [31] = experiment: Neuroprotective activity against Eif 2bS R191H […] mouse model assessed as reduction in Chac1 level in brain at 50 mg/kg, po administered for 2 days; type: functional, organism-based; conditions: time 2.0 day
# [32] = Clearance in rat at 1 mg/kg, iv; type: ADME, organism-based; conditions: in vivo
# Mus musculus [33] = experiment: Neuroprotective activity against Eif 2bS R191H […] mouse model assessed as reduction in trib3 level in brain at 50 mg/kg, po administered for 2 days; type: functional, organism-based; conditions: time 2.0 day
# [34] = target: T2, Nuclear receptor subfamily 1 group I member 2 (Homo sapiens, UniProt O75469); experiment: Activation of PXR (unknown origin)
# T2 sequence (O75469 whole entry): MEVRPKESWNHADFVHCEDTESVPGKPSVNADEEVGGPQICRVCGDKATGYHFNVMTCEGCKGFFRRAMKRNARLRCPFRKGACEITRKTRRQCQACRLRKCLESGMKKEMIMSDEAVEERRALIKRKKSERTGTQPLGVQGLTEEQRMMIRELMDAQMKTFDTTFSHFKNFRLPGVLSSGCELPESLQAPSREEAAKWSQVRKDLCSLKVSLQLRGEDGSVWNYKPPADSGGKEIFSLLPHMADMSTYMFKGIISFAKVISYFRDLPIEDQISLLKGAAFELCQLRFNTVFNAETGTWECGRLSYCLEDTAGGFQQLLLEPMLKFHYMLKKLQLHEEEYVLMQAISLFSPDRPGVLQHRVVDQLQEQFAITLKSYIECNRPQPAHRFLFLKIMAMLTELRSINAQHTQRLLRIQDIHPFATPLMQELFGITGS
# [35] = Oral bioavailability in rat at 3 mg/kg by LC-MS/MS analysis; type: ADME, organism-based; conditions: in vivo
# Mus musculus [36] = experiment: Neuroprotective activity against Eif 2bS R191H […] mouse model assessed as reduction in Sic7a11 level in brain at 50 mg/kg, po administered for 2 days; type: functional, organism-based; conditions: time 2.0 day
# [37] = Clearance in rat at 1 mg/kg, iv by LC-MS/MS analysis; type: ADME, organism-based; conditions: in vivo
# [38] = Volume of distribution at steady state in cynomolgus monkey at 0.5 mg/kg, iv; type: ADME, organism-based, Macaca fascicularis; conditions: in vivo, read-out: Vdss
# Mus musculus [39] = experiment: Neuroprotective activity against Eif 2bS R191H […] mouse model assessed as reduction in mthfd2 level in brain at 50 mg/kg, po administered for 2 days; type: functional, organism-based; conditions: time 2.0 day
# [40] = target: T3, Nuclear receptor subfamily 1 group I member 3 (Homo sapiens, UniProt Q14994); experiment: Activation of CAR (unknown origin)
# T3 sequence (Q14994 whole entry): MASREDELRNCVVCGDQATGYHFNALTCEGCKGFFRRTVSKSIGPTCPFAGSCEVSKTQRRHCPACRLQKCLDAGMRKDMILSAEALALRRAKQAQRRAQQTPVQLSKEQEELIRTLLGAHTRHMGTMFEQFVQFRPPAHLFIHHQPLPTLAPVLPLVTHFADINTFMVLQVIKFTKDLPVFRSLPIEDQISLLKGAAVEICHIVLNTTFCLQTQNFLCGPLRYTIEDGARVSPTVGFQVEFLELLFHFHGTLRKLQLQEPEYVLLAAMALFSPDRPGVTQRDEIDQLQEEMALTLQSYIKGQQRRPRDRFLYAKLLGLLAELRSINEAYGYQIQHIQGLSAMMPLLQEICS
# [41] = Half life in rat at 1 mg/kg, iv; type: ADME, organism-based; conditions: in vivo
smiles,measurement,setting,value
O=C(COc1ccc(Cl)c(F)c1)NC12CC(NC(=O)CO[C@H]3C[C@H](C(F)(F)F)C3)(C1)C2,CLhep predicted,[1],13 mL/min/kg
same,logD,[2],3.6
O=C(COc1ccc(Cl)cc1)NC1CCN(C(=O)COc2ccc(Cl)cc2)CC1,logD,[2],3.3
same,solubility kinetic,[3],5 µM
O=C(COc1ccc(Cl)cc1)NC12CCC(NC(=O)COc3ccc(Cl)cc3)(CC1)CC2,logD,[2],4.5
same,solubility kinetic,[3],< 1 µM
O=C(COc1ccc(Cl)cc1)NC12CC(NC(=O)COC3CCCC3)(C1)C2,logD,[2],3.4
same,solubility kinetic,[3],34 µM
O=C(COc1ccc(Cl)cc1)NC12CC(NC(=O)COC3CCOC3)(C1)C2 (stereo not drawn),logD,[2],1.8
same,solubility kinetic,[3],194 µM
O=C(COc1ccc(Cl)cc1)NC12CC(NC(=O)COc3ccc(Cl)cc3)(C1)C2,logD,[2],2.9
same,solubility kinetic,[3],2 µM
O=C(COc1ccc(Cl)c(F)c1)NC12CC(c3cnn([C@H]4C[C@@H](OC(F)(F)F)C4)n3)(C1)C2,CLhep predicted,[1],< 6 mL/min/kg
OC(COC1CCC(Cl)C(F)C1)NC12CC(NC(O)CO[C@H]3C[C@@H](C(F)(F)F)C3)(C1)C2 (stereo partly drawn),CLhep predicted,[1],13 mL/min/kg
same,logD,[2],3.1
O=C(COc1ccc(F)cc1)NC12CC(c3nnc([C@H]4C[C@@H](OC(F)(F)F)C4)o3)(C1)C2,CLhep predicted,[1],< 6 mL/min/kg
O=C(COCC1CCC1)NC12CC(NC(=O)COc3ccc(Cl)cc3)(C1)C2,logD,[2],3.6
same,solubility kinetic,[3],19 µM
O=C(COc1ccc(Cl)cc1)NC12CC(c3nnc([C@H]4C[C@@H](OC(F)(F)F)C4)o3)(C1)C2 [EVETIFATOR],Vd,[4],2.7 L/kg
same,Activity,[5],Not Active
same,"K(p,uu,brain)",[6],0.9
same,half-life,[7],7.6 h
same,Activity,Mus musculus [8],Active
same,Activity,Mus musculus [9],Active
same,half-life,[10],12.5 h
same,CLhep predicted,[11],< 17 mL/min/kg
same,Vd,[12],0.31 L/kg
same,Activity,Mus musculus [13],Active
same,"K(p,uu,brain)",[14],0.8
same,Vd,[15],0.31 L/kg
same,CLhep predicted,[1],< 6 mL/min/kg
same,clearance,[16],4.8 mL/min/kg
same,Activity,Mus musculus [17],Active
same,Activity,Mus musculus [18],Active
same,Activity,Mus musculus [19],Active
same,Activity,Mus musculus [20],Active
same,CLhep predicted,[21],< 17 mL/min/kg
same,bioavailability,[22],> 99%
same,Activity,Mus musculus [23],Active
same,bioavailability,[24],56%
same,clearance,[25],2.9 mL/min/kg
same,IC50,[26],3000 nM
same,Activity,Mus musculus [27],Active
same,IC50,H4,12.5 nM
same,half-life,[28],7.4 h
same,bioavailability,[29],> 99%
same,Activity,Mus musculus [30],Active
same,Activity,Mus musculus [31],Active
same,clearance,[32],0.4 mL/min/kg
same,Activity,Mus musculus [33],Active
same,Activity,[34],Not Active
same,bioavailability,[35],65%
same,Activity,Mus musculus [36],Active
same,clearance,[37],0.4 mL/min/kg
same,Vd,[38],1.9 L/kg
same,Activity,Mus musculus [39],Active
same,Activity,[40],Not Active
same,half-life,[41],12.5 h
